ChEMBL document CHEMBL1146743, “Three new cyclostellettamines, which inhibit histone deacetylase, from a marine sponge of the genus Xestospongia” (Bioorg Med Chem Lett, 2004)
pIC50: −log10 of the molar value.

What was measured:
P388 = test: Cytotoxicity against mouse leukemia (P388) cell line; assay type: functional, cell-based
Histone deacetylase = test: Inhibitory activity against histone deacetylase (HDAC); assay type: protein assay, Homo sapiens
3Y1 cell line = test: Inhibitory activity against rat fibroblast (3Y1) cell line; assay type: functional, cell-based
HeLa = test: Cytotoxicity against human cervix carcinoma (HeLa) cell line; assay type: functional, cell-based

IC50 (Histone deacetylase)	Compound	pIC50 (P388)	pIC50 (3Y1 cell line)	pIC50 (HeLa)
80 µM	C1=C/CCC[n+]2cccc(c2)CCCCCCCCCCCC[n+]2cccc(c2)CCCCCC/1.O=C([O-])C(F)(F)F.O=C([O-])C(F)(F)F	5.57	4.96	5.55
61 µM	C1=C/CCCC[n+]2cccc(c2)CCCCCCCCCCCC[n+]2cccc(c2)CCCCCC/1.O=C([O-])C(F)(F)F.O=C([O-])C(F)(F)F	5.68	5.14	5.74
30 µM	C1=C/CCCCCC[n+]2cccc(c2)CCCCCCCCCCCCC[n+]2cccc(c2)CCCCCC/1.O=C([O-])C(F)(F)F.O=C([O-])C(F)(F)F	5.89	5.49	5.74
17 µM	C1=C/CCCCCC[n+]2cccc(c2)CCCCCCCCCCCC[n+]2cccc(c2)CCCCCC/1.O=C([O-])C(F)(F)F.O=C([O-])C(F)(F)F	5.89	5.37	6.22
